The values that follow come from patent publication US7408065B2, “P2X7 receptor antagonists and their use” (AstraZeneca AB, priority 2003, dated 2008).

Structures can show the parent of a compound that is named as a salt.

`O=C(NCC1CCCCC1)c1c(Cl)ccc2nc(N3CC(O)C3)ccc12` [Example 53, 6-Chloro-N-(cyclohexylmethyl)-2-(3-hydroxy-1-azetidinyl)-5-quinolinecarboxamide] showed a melting point of 206 to 208 °C.

As to `CC1(CC(=O)Nc2cccc3ncccc23)CCCCC1` [Example 19, 1-Methyl-N-5-quinolinyl-cyclohexaneacetamide], the melting point is 133 to 135 °C. The result for `O=C(CC1CCCCC1)Nc1c(Cl)ccc2nc(N[C@@H]3CCNC3)ccc12` (as salt: hydrochloride) [Example 14, N-[6-Chloro-2-[(3R)-3-pyrrlidinylamino]-5-quinolinyl]-cyclohexaneacetamide, Dihydrochloride] reads 193 to 198 °C; that for `CNCC1CCCN1c1ccc2c(NC(=O)CC3CCCCC3)c(Cl)ccc2n1` (stereo not drawn) [Example 83, N-[6-Chloro-2-[2-[(methylamino)methyl]-1-pyrrolidinyl]-5-quinolinyl]-cyclohexaneacetamide], 138 to 145 °C. The result for `O=C(NCC1CCCCC1)c1c(Cl)ccc2nc(N3CC(NCCO)C3)ccc12` [Example 55, 6-Chloro-N-(cyclohexylmethyl)-2-[3-[(2-hydroxyethyl)amino]-1-azetidinyl]-5-quinolinecarboxamide] reads 150 to 151 °C; that for `O=C(CC1CCCCC1)Nc1c(Cl)ccc2nc(CCCCc3nnn[nH]3)ccc12` [Example 105, N-[6-Chloro-2-[4-(1H-tetrazol-5-yl)butyl]-5-quinolinyl]-cyclohexaneacetamide], 192 to 195 °C. The result for `Cc1ccc2c(C(=O)NCC3CCCCC3)c(Cl)ccc2n1` (as salt: hydrochloride) reads 210 to 213 °C. As for `O=C(CC1CCCCC1)Nc1c(Cl)ccc2nc(N3CCC(n4cn[nH]c4=O)CC3)ccc12` [Example 64, N-[6-Chloro-2-[4-(1,5-dihydro-5-oxo-4H-1,2,4-triazol-4-yl)-1-piperidinyl]-5-quinolinyl]-cyclohexaneacetamide], the melting point lay within 310 to 313 °C. The same measure for `CCCCNCCCc1ccc2c(NC(=O)CC3CCCCC3)c(Cl)ccc2n1` (as salt: hydrochloride): 219 to 221 °C; for `O=C(CCC1CCCC1)Nc1c(Cl)ccc2nc(N3CC[C@H](NCCO)C3)ccc12` [Example 63, N-[6-Chloro-2-[(3S)-3-[(2-hydroxyethyl)amino]-1-pyrrolidinyl]-5-quinolinyl]-cyclopentanepropanamide]: 186 to 188 °C. The same measure for `O=C(CC1CCCCC1)Nc1c(Cl)ccc2nc(NCCNCCO)ccc12` (as salt: hydrochloride) [Example 17, N-[6-Chloro-2-[[2-[(2-hydroxyethyl)amino]ethyl]amino]-5-quinolinyl]-cyclohexaneacetamide, Dihydrochloride]: 238 to 240 °C.

`O=C(CC1CCCCC1)Nc1c(Cl)ccc2nc(N3CC[C@H](NCCO)C3)ccc12` [Example 36, N-[6-Chloro-2-[(3S)-3-[(2-hydroxyethyl)amino]-1-pyrrolidinyl]-5-quinolinyl]-cyclohexaneacetamide] came in with a melting point of 194 to 196 °C. The same measure for `N[C@H]1CCN(c2ccc3c(NC(=O)CCC4CCCC4)c(Cl)ccc3n2)C1` [Example 62, N-[2-[(3S)-3-Amin-1-pyrrolidinyl]-6-chloro-5-quinlinyl]-cyclopentanepropanamide]: 192 to 194 °C; for `N[C@H]1CCN(Cc2ccc3c(NC(=O)CC4CCCCC4)c(Cl)ccc3n2)C1` [Example 59, N-[2-[[(3S)-3-Amino-1-pyrrolidinyl]methyl]-6-chloro-5-quinolinyl]-cyclohexaneacetamide]: 160 °C (dec.). The result for `O=C(CCC1CCCC1)Nc1cccc2ncccc12` [Example 21, N-5-Quinolinyl-cyclopentanepropanamide] reads 135 to 138 °C; that for `NC1CCN(c2ccc3c(NC(=O)CC4CCCCC4)c(Cl)ccc3n2)CC1` [Example 32, N-[2-(4-Amino-1-piperidinyl)-6-chloro-5-quinolinyl]-cyclohexaneacetamide], 333 to 334 °C; that for `O=C(CC1CCCCC1)Nc1c(Cl)ccc2nc(N3CC[C@H](NCCc4nnn[nH]4)C3)ccc12` [Example 101, N-[6-Chloro-2-[(3S)-3-[[2-(2H-tetrazol-5-yl)ethyl]amino]-1-pyrrolidinyl]-5-quinolinyl]-cyclohexaneacetamide], 220 to 221 °C.

`O=C(CC1CCCCC1)Nc1c(Cl)ccc2nc(N3CC[C@H](O)C3)ccc12` [Example 29, N-[6-Chloro-2-[(3S)-3-hydroxy-1-pyrrolidinyl]-5-quinolinyl]-cyclohexaneacetamide] had a melting point of 219 to 221 °C. The result for `O=C(CC1CCCCC1)Nc1c(Cl)ccc2nc(N3CCC[C@@H]3C(=O)O)ccc12` (as salt: trifluoroacetate) [Example 65, 1-[6-Chloro-5-[(cyclohexylacetyl)amino]-2-quinolinyl]-D-proline, Trifluoroacetate] reads 170 to 173 °C.

In turn, `CNC1CCCN(c2ccc3c(NC(=O)CC4CCCCC4)c(Cl)ccc3n2)C1` (stereo not drawn) [Example 82, N-[6-Chloro-2-[3-(methylamino)-1-piperidinyl]-5-quinolinyl]-cyclohexaneacetamide] had a melting point of 158 to 159 °C. The result for `O=C(O)CN[C@H]1CCN(c2ccc3c(NC(=O)CC4CCCCC4)c(Cl)ccc3n2)C1` [Example 85, N-[(3S)-1-[6-Chloro-5-[(cyclohexylacetyl)amino]-2-quinolinyl]-3-pyrrolidinyl]-glycine] reads 257 to 259 °C. The result for `N#CC1CCN(c2ccc3c(NC(=O)CC4CCCCC4)c(Cl)ccc3n2)CC1` [Example 113, N-[6-Chloro-2-(4-cyan-1-piperidinyl)-5-quinolinyl]-cyclhexaneacetamide] reads 235 to 237 °C; that for `NCCCc1ccc2c(NC(=O)CC3CCCCC3)c(Cl)ccc2n1` [Example 23, N-[2-(3-Aminopropyl)-6-chloro-5-quinolinyl]-cyclohexaneacetamide], 121 to 130 °C; that for `CN[C@H]1CCN(c2ccc3c(NC(=O)CC4CCCCC4)c(Cl)ccc3n2)C1` [Example 35, N-[6-Chloro-2-[(3S)-3-(methylamino)-1-pyrrolidinyl]-5-quinolinyl]-cyclohexaneacetamide], 164 to 165 °C.

`O=C(NCC1CCCCC1)c1c(Cl)ccc2nc(N3CCC(c4nnn[nH]4)CC3)ccc12` [Example 110, 6-Chloro-N-(cyclohexylmethyl)-2-[4-(1H-tetrazol-5-yl)-1-piperidinyl]-5-quinolinecarboxamide] yielded a melting point of 255 to 257 °C.

Regarding `O=C(CC1CCCCC1)Nc1c(Cl)ccc2nc(CCCNCCCO)ccc12` [Example 22, N-[6-Chloro-2-[3-[(3-hydroxypropyl)amino]propyl]-5-quinolinyl]-cyclohexaneacetamide], the melting point was 159 to 163 °C.

Take `O=C(O)CNc1ccc2c(NC(=O)CC3CCCCC3)c(Cl)ccc2n1` [Example 40, N-[6-Chloro-5-[(cyclohexylacetyl)amino]-2-quinolinyl]-glycine]: the melting point is 222 to 225 °C (dec.). The compound `O=C(NCCC1CCCCC1)c1c(Cl)ccc2nc(N3CCC(C(=O)O)CC3)ccc12` [Example 76, 1-[6-Chloro-5-[[(2-cyclohexylethyl)amino]carbonyl]-2-quinolinyl]-4-piperidinecarboxylic Acid] came in with a melting point of 253 to 256 °C.

Compound `O=C(CC1CCCCC1)Nc1c(Cl)ccc2nc(N3CCC(c4nnn[nH]4)CC3)ccc12` [Example 109, N-[6-Chloro-2-[4-(1H-tetrazol-5-yl)-1-piperidinyl]-5-quinolinyl]cyclohexane-acetamide] yielded a melting point of 295 to 300 °C. `CS(=O)(=O)NC(=O)N[C@H]1CCN(c2ccc3c(NC(=O)CC4CCCCC4)c(Cl)ccc3n2)C1` [Example 89, N-[6-Chloro-2-[(3S)-3-[[[(methylsulfonyl)amino]carbonyl]amino]-1-pyrrolidinyl]-5-quinolinyl]-cyclohexaneacetamide] yielded a melting point of 303 to 307 °C. The result for `O=C(O)CCCc1ccc2c(NC(=O)CC3CCCCC3)c(Cl)ccc2n1` [Example 67, 6-Chloro-5-[(cyclohexylacetyl)amino]-2-quinolinebutanoic Acid] reads 216 to 220 °C. The same measure for `O=C(CC1CCCCC1)Nc1c(Cl)ccc2nc(N3CC[C@H](OCCc4noc(=O)[nH]4)C3)ccc12` [Example 108, N-[6-Chloro-2-[(3S)-3-[2-(4,5-dihydro-5-oxo-1,2,4-oxadiazol-3-yl)ethoxy]-1-pyrrolidinyl]-5-quinolinyl]-cyclohexaneacetamide]: 185 to 190 °C; for `C[C@@H]1CN(c2ccc3c(NC(=O)CC4CCCCC4)c(Cl)ccc3n2)C[C@H](C)N1` [Example 11]: 250 to 252 °C. The result for `O=C(CC1CCCCC1)Nc1c(Cl)ccc2nc(N3CCCC3CNCCO)ccc12` (stereo not drawn) [Example 81, N-[6-Chloro-2-[2-[[(2-hydroxyethyl)amino]methyl]-1-pyrrolidinyl]-5-quinolinyl]-cyclohexaneacetamide] reads 157 to 158 °C. As for `O=C(CC1CCCCC1)Nc1c(Cl)ccc2nc(N3CC[C@H](NS(=O)(=O)C(F)(F)F)C3)ccc12` [Example 88, N-[6-Chloro-2-[(3S)-3-[[(trifluoromethyl)sulfonyl]amino]-1-pyrrolidinyl]-5-quinolinyl]-cyclohexaneacetamide], the melting point fell in the range of 178 to 200 °C. As for `O=C(CC1CCCCC1)Nc1cccc2ncccc12` [Example 18, N-5-Quinolinyl-cyclohexaneacetamide], the melting point lay within 183 to 184 °C.

In general, melting point refers to the temperature, or range, at which the solid turns liquid.
